Measurements taken from US11395821B2, “Treatment of EGFR-driven cancer with fewer side effects” (G1 Therapeutics, Inc., priority 2017, dated 2022).

Legend:
[1] = G1T38-02: G1T38-related TEAEs by CTCAE grade; assay type: in vivo, Humans; settings: for G1T38-related TEAE: Alopecia / G1T38-related TEAE: Anaemia / G1T38-related TEAE: Blood bilirubin increased / G1T38-related TEAE: Blood creatinine increased / G1T38-related TEAE: Blood lactate dehydrogenase increased / G1T38-related TEAE: Blood urea increased / G1T38-related TEAE: Diarrhoea / G1T38-related TEAE: Dry eye / G1T38-related TEAE: Dry mouth / G1T38-related TEAE: Haematuria / G1T38-related TEAE: Lacrimation increased / G1T38-related TEAE: Leukopenia / G1T38-related TEAE: Monocyte count decreased / G1T38-related TEAE: Nausea / G1T38-related TEAE: Neutropenia / G1T38-related TEAE: Neutrophil count deceased / G1T38-related TEAE: Platelet count decreased / G1T38-related TEAE: Stomatitis / G1T38-related TEAE: Thombocytopenia / G1T38-related TEAE: Vomiting / G1T38-related TEAE: White blood cell count decreased / Number (%) of patients with any G1T38-related TEAEs: N = 18
[2] = Study G1T38-01: safety and tolerability in healthy subjects; assay type: in vivo, Humans
From the text: Effects on hematologic parameters were not observed due to the limited duration of dosing.

With CC(C)N1CCN(c2ccc(Nc3ncc4cc5n(c4n3)C3(CCCCC3)CNC5=O)nc2)CC1 [Compound IV] the “G1T38-related TEAE: Alopecia” value ([1]; Grade 1-2) was 1 (5.6) n (%), the “G1T38-related TEAE: Anaemia” value ([1]; Grade 1-2) was 6 (33.3) n (%) and the “G1T38-related TEAE: Blood bilirubin increased” value ([1]; Grade 1-2) was 1 (5.6) n (%). The “G1T38-related TEAE: Blood creatinine increased” value ([1]; Grade 1-2) was 2 (11.1) n (%), the “G1T38-related TEAE: Blood lactate dehydrogenase increased” value ([1]; Grade 1-2) was 1 (5.6) n (%) and the “G1T38-related TEAE: Blood urea increased” value ([1]; Grade 1-2) was 1 (5.6) n (%). The “G1T38-related TEAE: Diarrhoea” value ([1]; Grade 1-2) was 5 (27.8) n (%), the “G1T38-related TEAE: Dry eye” value ([1]; Grade 1-2) was 1 (5.6) n (%) and the “G1T38-related TEAE: Dry mouth” value ([1]; Grade 1-2) was 1 (5.6) n (%). For the same molecule, the “G1T38-related TEAE: Haematuria” value ([1]; Grade 1-2) was 3 (16.7) n (%), the “G1T38-related TEAE: Lacrimation increased” value ([1]; Grade 1-2) was 1 (5.6) n (%) and the “G1T38-related TEAE: Leukopenia” value ([1]; Grade 1-2) was 1 (5.6) n (%). For the same molecule, the “G1T38-related TEAE: Monocyte count decreased” value ([1]; Grade 1-2) was 1 (5.6) n (%), the “G1T38-related TEAE: Nausea” value ([1]; Grade 1-2) was 5 (27.8) n (%) and the “G1T38-related TEAE: Neutropenia” value ([1]; Grade 1-2) was 3 (16.7) n (%). The “G1T38-related TEAE: Neutrophil count deceased” value ([1]; Grade 1-2) was 7 (38.9) n (%), the “G1T38-related TEAE: Platelet count decreased” value ([1]; Grade 1-2) was 2 (11.1) n (%) and the “G1T38-related TEAE: Stomatitis” value ([1]; Grade 1-2) was 1 (5.6) n (%). For the same molecule, the “G1T38-related TEAE: Thombocytopenia” value ([1]; Grade 1-2) was 1 (5.6) n (%), the “G1T38-related TEAE: Vomiting” value ([1]; Grade 1-2) was 3 (16.7) n (%) and the “G1T38-related TEAE: White blood cell count decreased” value ([1]; Grade 1-2) was 7 (38.9) n (%). For the same molecule, the “Number (%) of patients with any G1T38-related TEAEs” value (from here on “Number (%) of patients”) ([1]; Grade 1-2) was 11 (61.1) n (%), the “G1T38-related TEAE: Alopecia” value ([1]; Grade 3) was 0 n (%) and the “G1T38-related TEAE: Anaemia” value ([1]; Grade 3) was 0 n (%). The “G1T38-related TEAE: Blood bilirubin increased” value ([1]; Grade 3) was 0 n (%), the “G1T38-related TEAE: Blood creatinine increased” value ([1]; Grade 3) was 0 n (%) and the “G1T38-related TEAE: Blood lactate dehydrogenase increased” value ([1]; Grade 3) was 0 n (%). The “G1T38-related TEAE: Blood urea increased” value ([1]; Grade 3) was 0 n (%), the “G1T38-related TEAE: Diarrhoea” value ([1]; Grade 3) was 0 n (%) and the “G1T38-related TEAE: Dry eye” value ([1]; Grade 3) was 0 n (%). The “G1T38-related TEAE: Dry mouth” value ([1]; Grade 3) was 0 n (%), the “G1T38-related TEAE: Haematuria” value ([1]; Grade 3) was 0 n (%) and the “G1T38-related TEAE: Lacrimation increased” value ([1]; Grade 3) was 0 n (%). For the same molecule, the “G1T38-related TEAE: Leukopenia” value ([1]; Grade 3) was 0 n (%), the “G1T38-related TEAE: Monocyte count decreased” value ([1]; Grade 3) was 0 n (%) and the “G1T38-related TEAE: Nausea” value ([1]; Grade 3) was 0 n (%). The “G1T38-related TEAE: Neutropenia” value ([1]; Grade 3) was 1 (5.6) n (%), the “G1T38-related TEAE: Neutrophil count deceased” value ([1]; Grade 3) was 2 (11.1) n (%) and the “G1T38-related TEAE: Platelet count decreased” value ([1]; Grade 3) was 0 n (%). The “G1T38-related TEAE: Stomatitis” value ([1]; Grade 3) was 0 n (%), the “G1T38-related TEAE: Thombocytopenia” value ([1]; Grade 3) was 0 n (%) and the “G1T38-related TEAE: Vomiting” value ([1]; Grade 3) was 0 n (%). For the same molecule, the “G1T38-related TEAE: White blood cell count decreased” value ([1]; Grade 3) was 0 n (%), the “Number (%) of patients” value ([1]; Grade 3) was 3 (16.7) n (%) and the “G1T38-related TEAE: Alopecia” value ([1]; Grade 4) was 0 n (%). For the same molecule, the “G1T38-related TEAE: Anaemia” value ([1]; Grade 4) was 0 n (%), the “G1T38-related TEAE: Blood bilirubin increased” value ([1]; Grade 4) was 0 n (%) and the “G1T38-related TEAE: Blood creatinine increased” value ([1]; Grade 4) was 0 n (%). For the same molecule, the “G1T38-related TEAE: Blood lactate dehydrogenase increased” value ([1]; Grade 4) was 0 n (%), the “G1T38-related TEAE: Blood urea increased” value ([1]; Grade 4) was 0 n (%) and the “G1T38-related TEAE: Diarrhoea” value ([1]; Grade 4) was 0 n (%). The “G1T38-related TEAE: Dry eye” value ([1]; Grade 4) was 0 n (%), the “G1T38-related TEAE: Dry mouth” value ([1]; Grade 4) was 0 n (%) and the “G1T38-related TEAE: Haematuria” value ([1]; Grade 4) was 0 n (%). For the same molecule, the “G1T38-related TEAE: Lacrimation increased” value ([1]; Grade 4) was 0 n (%), the “G1T38-related TEAE: Leukopenia” value ([1]; Grade 4) was 0 n (%) and the “G1T38-related TEAE: Monocyte count decreased” value ([1]; Grade 4) was 0 n (%). The “G1T38-related TEAE: Nausea” value ([1]; Grade 4) was 0 n (%), the “G1T38-related TEAE: Neutropenia” value ([1]; Grade 4) was 1 (5.0) n (%) and the “G1T38-related TEAE: Neutrophil count deceased” value ([1]; Grade 4) was 0 n (%). For the same molecule, the “G1T38-related TEAE: Platelet count decreased” value ([1]; Grade 4) was 0 n (%), the “G1T38-related TEAE: Stomatitis” value ([1]; Grade 4) was 0 n (%) and the “G1T38-related TEAE: Thombocytopenia” value ([1]; Grade 4) was 0 n (%). The “G1T38-related TEAE: Vomiting” value ([1]; Grade 4) was 0 n (%), the “G1T38-related TEAE: White blood cell count decreased” value ([1]; Grade 4) was 0 n (%) and the “Number (%) of patients” value ([1]; Grade 4) was 1 (5.6) n (%). For the same molecule, the “G1T38-related TEAE: Alopecia” value ([1]; Grade 5) was 0 n (%), the “G1T38-related TEAE: Anaemia” value ([1]; Grade 5) was 0 n (%) and the “G1T38-related TEAE: Blood bilirubin increased” value ([1]; Grade 5) was 0 n (%). For the same molecule, the “G1T38-related TEAE: Blood creatinine increased” value ([1]; Grade 5) was 0 n (%), the “G1T38-related TEAE: Blood lactate dehydrogenase increased” value ([1]; Grade 5) was 0 n (%) and the “G1T38-related TEAE: Blood urea increased” value ([1]; Grade 5) was 0 n (%). For the same molecule, the “G1T38-related TEAE: Diarrhoea” value ([1]; Grade 5) was 0 n (%), the “G1T38-related TEAE: Dry eye” value ([1]; Grade 5) was 0 n (%) and the “G1T38-related TEAE: Dry mouth” value ([1]; Grade 5) was 0 n (%). The “G1T38-related TEAE: Haematuria” value ([1]; Grade 5) was 0 n (%), the “G1T38-related TEAE: Lacrimation increased” value ([1]; Grade 5) was 0 n (%) and the “G1T38-related TEAE: Leukopenia” value ([1]; Grade 5) was 0 n (%). The “G1T38-related TEAE: Monocyte count decreased” value ([1]; Grade 5) was 0 n (%), the “G1T38-related TEAE: Nausea” value ([1]; Grade 5) was 0 n (%) and the “G1T38-related TEAE: Neutropenia” value ([1]; Grade 5) was 0 n (%). For the same molecule, the “G1T38-related TEAE: Neutrophil count deceased” value ([1]; Grade 5) was 0 n (%), the “G1T38-related TEAE: Platelet count decreased” value ([1]; Grade 5) was 0 n (%) and the “G1T38-related TEAE: Stomatitis” value ([1]; Grade 5) was 0 n (%). For the same molecule, the “G1T38-related TEAE: Thombocytopenia” value ([1]; Grade 5) was 0 n (%), the “G1T38-related TEAE: Vomiting” value ([1]; Grade 5) was 0 n (%) and the “G1T38-related TEAE: White blood cell count decreased” value ([1]; Grade 5) was 0 n (%). The “Number (%) of patients” value ([1]; Grade 5) was 0 n (%), the “G1T38-related TEAE: Alopecia” value ([1]; Overall) was 1 (5.6) n (%) and the “G1T38-related TEAE: Anaemia” value ([1]; Overall) was 6 (33.3) n (%). The “G1T38-related TEAE: Blood bilirubin increased” value ([1]; Overall) was 1 (5.6) n (%), the “G1T38-related TEAE: Blood creatinine increased” value ([1]; Overall) was 2 (11.1) n (%) and the “G1T38-related TEAE: Blood lactate dehydrogenase increased” value ([1]; Overall) was 1 (5.6) n (%). For the same molecule, the “G1T38-related TEAE: Blood urea increased” value ([1]; Overall) was 1 (5.6) n (%), the “G1T38-related TEAE: Diarrhoea” value ([1]; Overall) was 5 (27.8) n (%) and the “G1T38-related TEAE: Dry eye” value ([1]; Overall) was 1 (5.6) n (%). For the same molecule, the “G1T38-related TEAE: Dry mouth” value ([1]; Overall) was 1 (5.6) n (%), the “G1T38-related TEAE: Haematuria” value ([1]; Overall) was 3 (16.7) n (%) and the “G1T38-related TEAE: Lacrimation increased” value ([1]; Overall) was 1 (5.6) n (%). The “G1T38-related TEAE: Leukopenia” value ([1]; Overall) was 1 (5.6) n (%), the “G1T38-related TEAE: Monocyte count decreased” value ([1]; Overall) was 1 (5.6) n (%) and the “G1T38-related TEAE: Nausea” value ([1]; Overall) was 5 (27.8) n (%). For the same molecule, the “G1T38-related TEAE: Neutropenia” value ([1]; Overall) was 5 (27.8) n (%), the “G1T38-related TEAE: Neutrophil count deceased” value ([1]; Overall) was 9 (50.0) n (%) and the “G1T38-related TEAE: Platelet count decreased” value ([1]; Overall) was 2 (11.1) n (%). The “G1T38-related TEAE: Stomatitis” value ([1]; Overall) was 1 (5.6) n (%), the “G1T38-related TEAE: Thombocytopenia” value ([1]; Overall) was 1 (5.6) n (%) and the “G1T38-related TEAE: Vomiting” value ([1]; Overall) was 3 (16.7) n (%). For the same molecule, the “G1T38-related TEAE: White blood cell count decreased” value ([1]; Overall) was 7 (38.9) n (%), the “Number (%) of patients” value ([1]; Overall) was 15 (83.3) n (%) and the “more severe EGFR-TKI-related AEs” value ([1]; nonclinical and clinical data to date (see Example 6)) was “none of the more severe EGFR-TKI-related AEs have been observed”. The “effect of fed conditions on gastrointestinal tolerability” value ([2]; dosing under fed conditions) was “appeared to improve gastrointestinal tolerability”, the “effects on hematologic parameters” value ([2]; limited duration of dosing) was “not observed” and the tolerability ([2]; single or twice daily oral doses, 3 to 600 mg/day, healthy male and female subjects) was “well to moderately tolerated”. The “most common moderate intensity TEAEs” value ([2]; subjects with moderate tolerability) was “gastrointestinal AEs were the most common moderate intensity treatment-emergent AEs”.
